Entries after “also recorded” stand apart in the source; their conditions may differ. Like-named read-outs stand apart in the source and are kept apart here.
Legend:
[1] = human plasma, 37° C., 4 h time course
[2] = Dynamic light scattering (DLS) particle size; assay type: physicochemical; conditions: within 2 hours of sample preparation
Description: INNA-011 and INNA-006 form micelle-type aggregates in both aqueous and organic solutions. The size distribution and polydispersity of particles of INNA-006 and INNA-011 were determined by dynamic light scattering (DLS) and size exclusion chromatography (University of Melbourne).
As the concentration of INNA-006 is increased, material with a particle size centered on a radius of ˜7 nm accumulates within 2 hours of the sample preparation as measured by DLS. This accumulation starts at a concentration of ˜16 μM, (0.02 mg/ml, represents the 0.16 nmole/10 μl curve) and is clearly discernable at 125 μM (0.17 mg/ml, represents the 1.25 nmole/10 μl curve) and above.
At the concentrations of 2 mM to […] particle sizes (7.4-7.7 nm) were larger than that observed with INNA-006 and additional species outside of this main sequence were more ordered and less dominant.

[3] = system: A/Udorn/307/72 (H3N2) influenza virus; assay type: in vivo, C57BL/6 mice
in vitro [4] = conditions: cynomolgus monkey, hepatocytes
in vitro [5] = conditions: dog, dog plasma
[6] = system: other TLR pattern recognition receptors (hTLR3, hTLR4, hTLR5, hTLR7, hTLR8, hTLR9); experiment: TLR panel, NF-κB inducible SEAP reporter in HEK293 cells: other TLRs; assay type: cell-based, human and mouse
Description: INNA-006 was assessed for its ability to activate a range of other TLR pattern recognition receptors. These assessments were conducted using both human and mouse TLR panels. These assays detect a secreted embryonic alkaline phosphatase (SEAP) reporter under the control of a promoter which is inducible by NF-κB activation in HEK293 cells. The secreted embryonic alkaline phosphatase (SEAP) reporter is under the control of a promoter inducible by the transcription factor NF-κB. This reporter gene allows the monitoring of signaling through the TLR, based on the activation of NF-κB. In a 96-well plate (200 μL total volume) containing the appropriate cells (50,000-75,000 cells/well), 20 μL of the test article or the positive control ligand is added to the wells. The media added to the wells is designed for the detection of NF-κB induced SEAP expression. After a 16-24 hr incubation the optical density (OD) is read at 650 nm on a Molecular Devices SpectraMax 340PC absorbance detector. • hTLR2: HKLM (heat-killed Listeria monocytogenes) at 1×10^8 cells/mL • hTLR3: Poly(I:C) HMW at 1 μg/mL • hTLR4: E. coli K12 LPS at 100 ng/mL • hTLR5: S. typhimurium flagellin at 100 ng/mL • hTLR7: CL307 at 1 μg/mL • hTLR8: CL075 at 1 μg/mL • hTLR9: CpG ODN2006 at 1 μg/mL.

in vitro [7] = conditions: human, hepatocytes
in vitro [8] = conditions: rat, rat plasma
human TLR2 = target: T1, human TLR2 (Homo sapiens, UniProt O60603); experiment: NF-kB activation in HEKBlue-hTLR2 cell line (SEAP reporter); assay type: cell-based
T1 construct: host or cells: HEK-Blue hTLR2 (HEK293-derived) cell line
Description: The potency of the compounds as activators of human and mouse TLR-2s was tested in an in vitro assay. The assay assesses NF-kB activation in the HEKBlue-mTLR-2 cell line. These cells have been stably transfected with mouse TLR-2 and express TLR-1 and TLR-6 endogenously at sufficient levels to allow for fully-functional TLR-1/2 and TLR-2/6 activation.
(§1) Toll-Like Receptor 2 (TLR2) stimulation is tested by assessing NF-kB activation in the HEKBlue-hTLR2 cell line. These cells have been stably transfected with human TLR2 and express TLR1 and TLR6 endogenously at a level sufficient to allow for fully-functional TLR1/2 and TLR2/6 activation. The activity of the test articles are tested on human TLR2 as potential agonists. The test articles are evaluated at seven concentrations and compared to control ligands. These steps are performed in triplicate.
as §1, with “stimulation was” for “stimulation is”, “assessing N-kB” for “assessing NF-kB”, “the HEK-Blue hTLR2” for “the HEKBlue-hTLR2”, “articles were” for “articles are”, “control ligands (see list below).” for “control ligands.”, “steps were” for “steps are”
The secreted embryonic alkaline phosphatase (SEAP) reporter is under the control of a promoter inducible by the transcription factor NF-κB. This reporter gene allows the monitoring of signaling through the TLR, based on the activation of NF-κB. In a 96-well plate (200 μL total volume) containing the appropriate cells (50,000-75,000 cells/well), 20 μL of the test article or the positive control ligand is added to the wells. The media added to the wells is designed for the detection of NF-κB induced SEAP expression. After a 20 hour incubation the optical density (OD) is read at 650 nm on a Molecular Devices SpectraMax 340PC absorbance detector.

[9] = Size exclusion chromatography and LC-MS analysis of micelle aggregates; assay type: physicochemical; conditions: INNA-006 at 0.3 mg/ml in PBS; INNA-011 at 0.4 mg/ml in saline
Description: INNA-011 and INNA-006 form micelle-type aggregates in both aqueous and organic solutions. The size distribution and polydispersity of particles of INNA-006 and INNA-011 were determined by dynamic light scattering (DLS) and size exclusion chromatography (University of Melbourne). […] This corresponds to the assembly in a micelle formation of about 266 individual INNA-006 molecules. Using size exclusion chromatography and LC-MS analysis, it was determined that INNA-011 at 0.4 mg/ml is present in saline solution as a single uniform species with a Stoke's radius of ˜7.3 nm and a molecular weight of ˜566,000. This corresponds to the assembly in a micelle formation of about 267 individual INNA-011 molecules.

T1 sequence (O60603 21-784): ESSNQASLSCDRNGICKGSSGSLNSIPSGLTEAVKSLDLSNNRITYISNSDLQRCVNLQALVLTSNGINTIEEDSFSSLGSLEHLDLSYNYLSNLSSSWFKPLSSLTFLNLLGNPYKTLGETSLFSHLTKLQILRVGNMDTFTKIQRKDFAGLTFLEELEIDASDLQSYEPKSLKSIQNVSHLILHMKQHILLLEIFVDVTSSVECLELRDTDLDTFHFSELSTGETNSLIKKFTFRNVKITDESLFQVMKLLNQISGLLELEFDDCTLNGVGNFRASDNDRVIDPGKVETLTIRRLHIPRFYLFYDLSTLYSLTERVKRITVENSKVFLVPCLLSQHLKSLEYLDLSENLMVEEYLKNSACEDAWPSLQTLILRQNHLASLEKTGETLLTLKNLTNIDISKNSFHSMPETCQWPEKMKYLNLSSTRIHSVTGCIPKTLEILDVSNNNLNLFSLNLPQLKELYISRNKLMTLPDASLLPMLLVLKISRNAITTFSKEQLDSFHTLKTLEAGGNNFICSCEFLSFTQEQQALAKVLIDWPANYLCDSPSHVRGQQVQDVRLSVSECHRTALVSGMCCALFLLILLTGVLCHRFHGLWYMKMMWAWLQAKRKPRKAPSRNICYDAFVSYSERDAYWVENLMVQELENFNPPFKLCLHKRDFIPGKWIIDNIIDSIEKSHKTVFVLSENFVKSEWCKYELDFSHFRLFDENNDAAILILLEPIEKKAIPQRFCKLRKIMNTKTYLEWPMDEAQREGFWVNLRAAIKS
T1 sequence (Q9Y2C9 32-796 partner): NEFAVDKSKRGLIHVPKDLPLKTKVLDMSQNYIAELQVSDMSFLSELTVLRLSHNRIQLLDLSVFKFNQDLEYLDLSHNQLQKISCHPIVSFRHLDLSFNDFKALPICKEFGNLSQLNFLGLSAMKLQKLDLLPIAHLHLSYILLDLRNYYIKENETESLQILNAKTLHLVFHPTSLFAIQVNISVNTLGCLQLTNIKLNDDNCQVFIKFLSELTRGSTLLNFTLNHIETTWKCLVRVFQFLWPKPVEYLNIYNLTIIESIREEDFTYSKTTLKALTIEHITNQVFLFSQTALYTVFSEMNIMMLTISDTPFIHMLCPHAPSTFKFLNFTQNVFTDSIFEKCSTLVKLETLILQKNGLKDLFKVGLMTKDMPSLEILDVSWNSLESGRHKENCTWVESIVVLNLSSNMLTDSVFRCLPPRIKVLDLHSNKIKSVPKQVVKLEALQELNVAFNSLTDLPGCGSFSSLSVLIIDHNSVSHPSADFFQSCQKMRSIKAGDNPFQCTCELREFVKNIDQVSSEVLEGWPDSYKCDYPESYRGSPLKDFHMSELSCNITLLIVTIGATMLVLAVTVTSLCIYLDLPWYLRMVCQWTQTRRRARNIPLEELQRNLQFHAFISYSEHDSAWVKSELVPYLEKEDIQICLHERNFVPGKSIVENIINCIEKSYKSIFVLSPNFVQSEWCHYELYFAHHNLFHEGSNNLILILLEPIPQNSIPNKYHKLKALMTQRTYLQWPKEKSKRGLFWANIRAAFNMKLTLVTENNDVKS

## CCC(=O)OCC(CSCC(N)C(=O)NC(CO)C(=O)NCCOCC(=O)NCC(N)=O)OC(=O)CC (stereo not drawn) [INNA-006, Pam2Cys-Ser-PEG]
[1]
  plasma half-life: could not be calculated due to insufficient degradation
[2]; DLS
  concentration at which accumulation of ~7 nm particles starts: ~16 µM
[2]; INNA-011 at 2 mM to 8 pM in PBS
  particle size (radius) by DLS: around 7 nm
[3]; 0.005 nmoles intranasal 1 day prior to 500 pfu Udorn challenge, n=5, day 5 (Example 4)
  progression of influenza virus to the lungs (lung viral titre): partial inhibition
[3]; 0.05 nmoles intranasal 1 day prior to challenge, n=10 (Example 5)
  progression of influenza virus to the lungs (lung viral titre): partial inhibition
[3]; 0.1 nmoles intranasal 1 day prior to 500 pfu Udorn challenge, n=5, day 5 (Example 4)
  progression of influenza virus to the lungs (lung viral titre): significantly inhibited
[3]; 0.5 nmoles intranasal 1 day prior to challenge, n=10 (Example 5)
  progression of influenza virus to the lungs (lung viral titre): significantly inhibited
[3]; 5 nmoles intranasal 1 day prior to 500 pfu Udorn challenge, n=5, day 5 (Example 4)
  progression of influenza virus to the lungs (lung viral titre): significantly inhibited
[3]; 5 nmoles intranasal 1 day prior to challenge, n=10 (Example 5)
  progression of influenza virus to the lungs (lung viral titre): significantly inhibited
[3]; 3 doses of 0.5 nmoles (Example 7, FIG. 10)
  times more effective than INNA-003 at inhibiting viral progression: 10-100 times
[3]; 3 doses of 0.5 nmoles (days 0, 2, 4), challenge one day after third dose (Example 7)
  progression of influenza virus to the lungs (lung viral titre): major reduction in viral load in the lungs; also recorded: significant reduction in dissemination of virus to lungs; also recorded: significantly inhibited
[3]; single dose 1 day prior to challenge (Example 4)
  times more effective than INNA-003 or Pam2Cys-SK4 at inhibiting viral progression: 10-100 times
In vitro [4]
  half-life at 0.5 μM: > 6.25 h
  hepatocyte CLint at 0.5 μM: < 2 µL/min/1e6 cells
In vitro [5]
  half-life: 8.9 h
[6]
  activation of any other TLR tested: no activation
In vitro [7]
  half-life at 0.5 μM: > 6.25 h
  hepatocyte CLint at 0.5 μM: < 2 µL/min/1e6 cells
In vitro [8]
  half-life: 5.7 h
Human TLR2; Example 2
  TLR2 activation, potency in words: significantly more potent than INNA-003
Human TLR2; agonist activity against Human TLR-2 in vitro
  EC50: 7.7 pM
[9]
  Stokes radius: ~6.3 nm
  individual molecules assembled in a micelle formation: about 266 molecules
  molecular weight of micelle species: ~377,000

— US12195557B2, “Optimised compounds” (AXELIA ONCOLOGY PTY LTD, priority 2017, dated 2025)
